Experimental findings from ChEMBL document CHEMBL3758182, “Synthesis of Alocasin A” (J Nat Prod, 2015) are described below.

The subject of one experiment is HepG2. The experiment is described as follows: Antiproliferative activity against human HepG2 cells. The class given is functional, cell-based.
The nature of experiment [1]: Antiproliferative activity against human Hep2 cells. The conditions noted are these: HEp-2. Format: functional, cell-based.

As usually defined, the IC50 is the concentration that inhibits the measured activity by half. Read a low IC50 as greater potency in that assay.

Regarding `Oc1ccc2[nH]cc(-c3cnc(-c4c[nH]c5ccc(O)cc45)cn3)c2c1`, the IC50 stood at 85 µM with HepG2 and 151 µM in experiment [1].
